# According to patent US9708314B2, “Heterocyclic amide compound” (NISSAN CHEMICAL INDUSTRIES, LTD., priority 2013, dated 2017):
# How the values were obtained:
# Assay type in all cases: in vivo
# [1] = test system: Triticum aestivum; assay: Test Example 4: effect on crop by application to foliage (diluvial soil, plastic box); conditions: application to foliage; for effect on crop, e (Triticum aestivum): 320 g/ha
# Method in brief: (§1)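 Scores run from 0 (herbicidal ratio ≤5%) to 5 (≥90%, almost fully withered) and were assessed three weeks after foliar spraying. Seedlings had been raised for 14 days at 25-30° C in sterilized diluvial soil before treatment, with the emulsion diluted in water to the stated g/ha dose.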
# [2] = test system: Zea mays; assay: as above; conditions: application to foliage; for effect on crop, b (Zea mays): 320 g/ha
# Method in brief: as §1
# [3] = test system: Brassica campestris L.; assay: as above; conditions: application to foliage; for effect on crop, g (Brassica campestris L.): 320 g/ha
# Method in brief: as §1
# [4] = test system: Beta vulgaris ssp. vulgaris; assay: as above; conditions: application to foliage; for effect on crop, f (Beta vulgaris ssp. vulgaris): 320 g/ha
# Method in brief: as §1
# [5] = test system: Glycine max; assay: as above; conditions: application to foliage; for effect on crop, c (Glycine max): 320 g/ha
# Method in brief: as §1
# [6] = test system: directly sowed Oryza sativa; assay: as above; conditions: application to foliage; for effect on crop, d (directly sowed Oryza sativa): 320 g/ha
# Method in brief: as §1
# [7] = test system: Avena fatua; assay: Test Example 4: herbicidal effect by application to foliage (diluvial soil, plastic box); conditions: application to foliage; for herbicidal effect, I (Avena fatua): 320 g/ha
# Method in brief: as §1
# [8] = test system: Alopecurus myosuroides; assay: as above; conditions: application to foliage; for herbicidal effect, J (Alopecurus myosuroides): 320 g/ha
# Method in brief: as §1
# [9] = test system: Galium spurium; assay: as above; conditions: application to foliage; for herbicidal effect, Q (Galium spurium): 320 g/ha
# Method in brief: as §1
# [10] = test system: Amaranthus retroflexus; assay: as above; conditions: application to foliage; for herbicidal effect, N (Amaranthus retroflexus): 320 g/ha
# Method in brief: as §1
# [11] = test system: Apera spica-venti.; assay: as above; conditions: application to foliage; for herbicidal effect, L (Apera spica-venti.): 320 g/ha
# Method in brief: as §1
# [12] = test system: Stellaria media; assay: as above; conditions: application to foliage; for herbicidal effect, P (Stellaria media): 320 g/ha
# Method in brief: as §1
# [13] = test system: Abutilon theophrasti; assay: as above; conditions: application to foliage; for herbicidal effect, M (Abutilon theophrasti): 320 g/ha
# Method in brief: as §1
# [14] = test system: Veronica persica; assay: as above; conditions: application to foliage; for herbicidal effect, R (Veronica persica): 320 g/ha
# Method in brief: as §1
# [15] = test system: Setaria viridis; assay: as above; conditions: application to foliage; for herbicidal effect, G (Setaria viridis): 320 g/ha
# Method in brief: as §1
# [16] = test system: Echinochloa crus-galli var. crus-galli; assay: as above; conditions: application to foliage; for herbicidal effect, H (Echinochloa crus-galli var. crus-galli): 320 g/ha
# Method in brief: as §1
# [17] = test system: Digitaria ciliaris; assay: as above; conditions: application to foliage; for herbicidal effect, F (Digitaria ciliaris): 320 g/ha
# Method in brief: as §1
# [18] = test system: Lolium multiflorum Lam.; assay: as above; conditions: application to foliage; for herbicidal effect, K (Lolium multiflorum Lam.): 320 g/ha
# Method in brief: as §1
# [19] = test system: Chenopodium album; assay: as above; conditions: application to foliage; for herbicidal effect, O (Chenopodium album): 320 g/ha
# Method in brief: as §1
# [20] = test system: Echinochloa oryzacola Vasing.; assay: Test Example 1: herbicidal activity, application before weed generation in submerged conditions; conditions: Seventeenth Table; for A: Echinochloa oryzicola Vasing. (herbicidal effect grade): Application herbicide amount 320 g/ha
# Method in brief: (§2)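 Alluvial soil in Wagner pots flooded to 4 cm water depth; weed seeds sown and 2.5 leaf stage rice seedlings transplanted. Emulsion diluted in water applied to water surface on sowing day at stated g/ha. Greenhouse 25° C. to 30° C.; effects scored 0–5 by herbicidal ratio after three weeks.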
# [21] = test system: Monochoria vaginalis; assay: as above; conditions: Seventeenth Table; for C: Monochoria vaginalis (herbicidal effect grade): Application herbicide amount 320 g/ha
# Method in brief: as §2
# [22] = test system: Scirpus juncoides; assay: as above; conditions: Seventeenth Table; for B: Scirpus juncoides (herbicidal effect grade): Application herbicide amount 320 g/ha
# Method in brief: as §2
# [23] = application herbicide amount 320 g/ha
structure (smiles),measurement,setting,value
COCCSc1nnc2c(C(=O)Nc3nnnn3C)ccc(C(F)(F)F)n12 [2-101],"effect on crop, e (Triticum aestivum)",[1],3 (Herbicidal ratio of 40% or more and less than 70%)
same,"effect on crop, b (Zea mays)",[2],4 (Herbicidal ratio of 70% or more and less than 90%)
same,"effect on crop, g (Brassica campestris L.)",[3],5 (Herbicidal ratio of 90% or more (almost completely withered))
same,"effect on crop, f (Beta vulgaris ssp. vulgaris)",[4],5 (Herbicidal ratio of 90% or more (almost completely withered))
same,"effect on crop, c (Glycine max)",[5],2 (Herbicidal ratio of 20% or more and less than 40%)
same,"effect on crop, d (directly sowed Oryza sativa)",[6],5 (Herbicidal ratio of 90% or more (almost completely withered))
same,"herbicidal effect, I (Avena fatua)",[7],3 (Herbicidal ratio of 40% or more and less than 70%)
same,"herbicidal effect, J (Alopecurus myosuroides)",[8],3 (Herbicidal ratio of 40% or more and less than 70%)
same,"herbicidal effect, Q (Galium spurium)",[9],4 (Herbicidal ratio of 70% or more and less than 90%)
same,"herbicidal effect, N (Amaranthus retroflexus)",[10],5 (Herbicidal ratio of 90% or more (almost completely withered))
same,"herbicidal effect, L (Apera spica-venti.)",[11],4 (Herbicidal ratio of 70% or more and less than 90%)
same,"herbicidal effect, P (Stellaria media)",[12],5 (Herbicidal ratio of 90% or more (almost completely withered))
same,"herbicidal effect, M (Abutilon theophrasti)",[13],5 (Herbicidal ratio of 90% or more (almost completely withered))
same,"herbicidal effect, R (Veronica persica)",[14],5 (Herbicidal ratio of 90% or more (almost completely withered))
same,"herbicidal effect, G (Setaria viridis)",[15],5 (Herbicidal ratio of 90% or more (almost completely withered))
same,"herbicidal effect, H (Echinochloa crus-galli var. crus-galli)",[16],5 (Herbicidal ratio of 90% or more (almost completely withered))
same,"herbicidal effect, F (Digitaria ciliaris)",[17],5 (Herbicidal ratio of 90% or more (almost completely withered))
same,"herbicidal effect, K (Lolium multiflorum Lam.)",[18],3 (Herbicidal ratio of 40% or more and less than 70%)
same,"herbicidal effect, O (Chenopodium album)",[19],5 (Herbicidal ratio of 90% or more (almost completely withered))
same,A (Echinochloa oryzicola Vasing.) herbicidal ratio grade,[20]; [23],5 (Herbicidal ratio of 90% or more (almost completely withered))
same,C (Monochoria vaginalis) herbicidal ratio grade,[21]; [23],5 (Herbicidal ratio of 90% or more (almost completely withered))
same,B (Scirpus juncoides) herbicidal ratio grade,[22]; [23],5 (Herbicidal ratio of 90% or more (almost completely withered))
C=CCn1nnnc1NC(=O)c1ccc(C(F)(F)F)n2c(C(C)C)nnc12 [2-091],"effect on crop, e (Triticum aestivum)",[1],3 (Herbicidal ratio of 40% or more and less than 70%)
same,"effect on crop, b (Zea mays)",[2],2 (Herbicidal ratio of 20% or more and less than 40%)
same,"effect on crop, g (Brassica campestris L.)",[3],5 (Herbicidal ratio of 90% or more (almost completely withered))
same,"effect on crop, f (Beta vulgaris ssp. vulgaris)",[4],5 (Herbicidal ratio of 90% or more (almost completely withered))
same,"effect on crop, c (Glycine max)",[5],0 (Herbicidal ratio of 5% or less (almost no effect))
same,"effect on crop, d (directly sowed Oryza sativa)",[6],3 (Herbicidal ratio of 40% or more and less than 70%)
same,"herbicidal effect, I (Avena fatua)",[7],3 (Herbicidal ratio of 40% or more and less than 70%)
same,"herbicidal effect, J (Alopecurus myosuroides)",[8],2 (Herbicidal ratio of 20% or more and less than 40%)
same,"herbicidal effect, Q (Galium spurium)",[9],4 (Herbicidal ratio of 70% or more and less than 90%)
same,"herbicidal effect, N (Amaranthus retroflexus)",[10],4 (Herbicidal ratio of 70% or more and less than 90%)
same,"herbicidal effect, L (Apera spica-venti.)",[11],3 (Herbicidal ratio of 40% or more and less than 70%)
same,"herbicidal effect, P (Stellaria media)",[12],5 (Herbicidal ratio of 90% or more (almost completely withered))
same,"herbicidal effect, M (Abutilon theophrasti)",[13],4 (Herbicidal ratio of 70% or more and less than 90%)
same,"herbicidal effect, R (Veronica persica)",[14],4 (Herbicidal ratio of 70% or more and less than 90%)
same,"herbicidal effect, G (Setaria viridis)",[15],5 (Herbicidal ratio of 90% or more (almost completely withered))
same,"herbicidal effect, H (Echinochloa crus-galli var. crus-galli)",[16],5 (Herbicidal ratio of 90% or more (almost completely withered))
same,"herbicidal effect, F (Digitaria ciliaris)",[17],5 (Herbicidal ratio of 90% or more (almost completely withered))
same,"herbicidal effect, K (Lolium multiflorum Lam.)",[18],3 (Herbicidal ratio of 40% or more and less than 70%)
same,"herbicidal effect, O (Chenopodium album)",[19],5 (Herbicidal ratio of 90% or more (almost completely withered))
same,A: Echinochloa oryzicola Vasing. (herbicidal effect grade),[20],5 (Herbicidal ratio of 90% or more (almost completely withered))
same,C: Monochoria vaginalis (herbicidal effect grade),[21],5 (Herbicidal ratio of 90% or more (almost completely withered))
same,B: Scirpus juncoides (herbicidal effect grade),[22],5 (Herbicidal ratio of 90% or more (almost completely withered))
COc1ccc(N(C)c2nnc3c(C(=O)Nc4nnco4)ccc(C(F)(F)F)n23)cc1 [1-171],"e: effect on crop, Triticum aestivum",[1]; [23],0 (Herbicidal ratio of 5% or less (almost no effect))
same,"c: effect on crop, Zea mays",[2]; [23],0 (Herbicidal ratio of 5% or less (almost no effect))
same,"g: effect on crop, Brassica campestris L.",[3]; [23],3 (Herbicidal ratio of 40% or more and less than 70%)
same,"f: effect on crop, Beta vulgaris ssp. vulgaris",[4]; [23],5 (Herbicidal ratio of 90% or more (almost completely withered))
same,"d: effect on crop, Glycine max",[5]; [23],3 (Herbicidal ratio of 40% or more and less than 70%)
same,"b: effect on crop, directly sowed Oryza sativa",[6]; [23],0 (Herbicidal ratio of 5% or less (almost no effect))
same,I: herbicidal effect on Avena fatua,[7]; [23],0 (Herbicidal ratio of 5% or less (almost no effect))
same,J: herbicidal effect on Alopecurus myosuroides,[8]; [23],0 (Herbicidal ratio of 5% or less (almost no effect))
same,Q: herbicidal effect on Galium spurium,[9]; [23],2 (Herbicidal ratio of 20% or more and less than 40%)
same,N: herbicidal effect on Amaranthus retroflexus,[10]; [23],4 (Herbicidal ratio of 70% or more and less than 90%)
same,L: herbicidal effect on Apera spica-venti.,[11]; [23],1 (Herbicidal ratio of 5% or more and less than 20%)
same,P: herbicidal effect on Stellaria media,[12]; [23],5 (Herbicidal ratio of 90% or more (almost completely withered))
same,M: herbicidal effect on Abutilon theophrasti,[13]; [23],4 (Herbicidal ratio of 70% or more and less than 90%)
same,R: herbicidal effect on Veronica persica,[14]; [23],3 (Herbicidal ratio of 40% or more and less than 70%)
same,G: herbicidal effect on Setaria viridis,[15]; [23],3 (Herbicidal ratio of 40% or more and less than 70%)
same,H: herbicidal effect on Echinochloa crus-galli var. crus-galli,[16]; [23],5 (Herbicidal ratio of 90% or more (almost completely withered))
same,F: herbicidal effect on Digitaria ciliaris,[17]; [23],3 (Herbicidal ratio of 40% or more and less than 70%)
same,K: herbicidal effect on Lolium multiflorum Lam.,[18]; [23],0 (Herbicidal ratio of 5% or less (almost no effect))
same,O: herbicidal effect on Chenopodium album,[19]; [23],5 (Herbicidal ratio of 90% or more (almost completely withered))
same,A: Echinochloa oryzicola Vasing. (herbicidal effect grade),[20],5 (Herbicidal ratio of 90% or more (almost completely withered))
same,C: Monochoria vaginalis (herbicidal effect grade),[21],4 (Herbicidal ratio of 70% or more and less than 90%)
same,B: Scirpus juncoides (herbicidal effect grade),[22],4 (Herbicidal ratio of 70% or more and less than 90%)
